Laboratory results taken from patent US8299073B2, “P38 MAP kinase inhibitors” (Respivert Ltd., priority 2008, dated 2012).
pEC50, pIC50: −log10 of the molar value.

Columns and labels:
[1] = tested on: ovalbumin-mediated lung function changes (sGaw); experiment: Ovalbumin challenge/parainfluenza infection model; format: in vivo, Dunkin-Hartley guinea-pigs; conditions: nebulised, 1.5 mg per day; sensitized animals treated with PIV3 medium
[2] = tested on: neutrophil and macrophage accumulation into airways; experiment: Cigarette smoke model; format: in vivo, A/J mice; conditions: 50 μg/ml (35 μl, bid, in); cigarette smoke exposed mice
Procedure: A/J mice (males, 5 weeks old) were exposed to cigarette smoke (4% cigarette smoke, diluted with compressed air) for 30 min/day for 11 days using a Tobacco Smoke Inhalation Experiment System for small animals (Model SIS-CS; Sibata Scientific Technology, Tokyo, Japan). Test substances were given intra-nasally (35 μl of solution in 50% DMSO/PBS) and therapeutically twice daily for 3 days after the final cigarette smoke exposure. Twelve hours after the last dosing, animals were anesthetized, the trachea cannulated and bronchoalveolar lavage fluid (BALF) was collected. […] The results are shown in FIG. 3 for activated alveolar macrophages and in FIG. 4 for neutrophils. Data for cell numbers are shown as the mean±SEM. The cigarette smoke model used for this study is reported as a corticosteroid refractory system, ([…]. et al., (2008); J. Pharmacol. Exp.

[3] = tested on: LPS-induced TNFα release in THP-1 cells; experiment: LPS-induced TNF alpha release in THP-1 cells; format: cell-based; conditions: Homo sapiens, THP-1; LPS-induced TNFα release; read-out: IC50 values THP-1 cells
Procedure: THP-1, human monocytic cell line, was also used for this assay. THP-1 cells were stimulated with 1 μg/ml of LPS (from E. coli: O111:B4, Sigma) for 4 hrs, and the supernatant collected for determination of TNFα concentration.
THP-1 cells, a human monocytic cell line, were stimulated with 1 μg/ml of LPS (from E. coli; O111:B4, Sigma) for 4 hr and the supernatant collected for determination of TNFα concentration by sandwich ELISA (Duo-set, R&D systems). The inhibition of TNFα production was calculated at each concentration by comparison with vehicle control.

[4] = biological target: T1, p38 MAPK alpha (MAPK14: Invitrogen) (Homo sapiens, UniProt Q16539); experiment: Enzyme inhibition assay (FRET, Z-LYTE), p38 MAPK alpha, via activation of MAPKAP-K2; format: biochemical; conditions: read-out: IC50 values p38α enzyme
T1 construct: purchased Invitrogen
T1 sequence (Q16539 whole entry): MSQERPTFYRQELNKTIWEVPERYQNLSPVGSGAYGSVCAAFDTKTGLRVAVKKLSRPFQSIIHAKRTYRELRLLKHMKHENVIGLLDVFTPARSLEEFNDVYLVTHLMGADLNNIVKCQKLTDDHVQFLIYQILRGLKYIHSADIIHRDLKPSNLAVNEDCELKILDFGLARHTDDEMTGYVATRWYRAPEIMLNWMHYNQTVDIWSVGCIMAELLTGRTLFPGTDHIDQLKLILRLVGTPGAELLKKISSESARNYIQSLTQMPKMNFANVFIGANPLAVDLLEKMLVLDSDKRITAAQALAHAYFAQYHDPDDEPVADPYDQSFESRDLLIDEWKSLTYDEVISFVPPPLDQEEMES

[5] = biological target: T2, recombinant, phosphorylated p38 MAPK gamma (MAPK12:Millipore) (Homo sapiens, UniProt P53778); experiment: Enzyme inhibition assay (FRET, Z-LYTE), p38 MAPK gamma; format: biochemical; conditions: read-out: IC50 values P38γ enzyme
T2 construct: purchased Millipore
T2 sequence (P53778 1-367): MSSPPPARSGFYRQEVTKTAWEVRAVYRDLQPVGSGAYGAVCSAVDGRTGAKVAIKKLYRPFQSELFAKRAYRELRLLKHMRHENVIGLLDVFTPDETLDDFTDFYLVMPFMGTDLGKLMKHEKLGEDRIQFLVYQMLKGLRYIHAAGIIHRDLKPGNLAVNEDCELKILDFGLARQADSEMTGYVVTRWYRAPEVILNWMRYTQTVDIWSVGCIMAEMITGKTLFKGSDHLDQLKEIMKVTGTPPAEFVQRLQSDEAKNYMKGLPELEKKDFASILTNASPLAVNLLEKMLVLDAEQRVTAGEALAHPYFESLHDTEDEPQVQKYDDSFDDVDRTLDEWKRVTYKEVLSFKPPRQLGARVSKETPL
Procedure: The enzyme inhibitory activity of compound was determined by fluorescence resonance energy transfer (FRET) using synthetic peptides labelled with both donor and acceptor fluorophores (Z-LYTE, Invitrogen). Briefly, recombinant, phosphorylated p38 MAPK gamma (MAPK12:Millipore) was diluted in HEPES buffer, mixed with compound at desired final concentrations and incubated for two hours at room temperature. The FRET peptide (2 μM) and ATP (100 uM) were next added to the enzyme/compound mixture and incubated for one hour. Development reagent (protease) was added for one hour prior to detection in a fluorescence microplate reader. The site-specific protease only cleaves non-phosphorylated peptide and eliminates the FRET signal. Phosphorylation levels of each reaction were calculated using the ratio of coumarin emission (donor) over fluorescein emission (acceptor) with high ratios indicating high phosphorylation and low ratios, low phosphorylation levels.

[6] = tested on: Differentiated U937 cells; experiment: MTT assay (loss of cell viability); format: cell-based, human; conditions: loss of cell viability, 10 ug/ml
Procedure: Differentiated U937 cells were pre-incubated with compound for 4 hrs in 5% FCS or 10% FCS for 24 hrs and 72 hr. The supernatant was replaced with 200 ul of new media and 10 μL of MTT stock solution (5 mg/mL) added to each well. After 1 hr incubation, the media were removed, 200 μL of DMSO added to each well and the plates were shaken lightly for 1 hr prior to reading the absorbance at 550 nm.
The percentage loss of cell viability was calculated for each well relative to vehicle (0.5% DMSO)-treatment. Consequently an apparent increase in cell viability for drug treatment relative to vehicle is tabulated as a negative percentage.

[7] = tested on: LPS-induced TNFα release in differentiated U937 cells; experiment: LPS-induced TNF alpha release in differentiated U937 cells; format: cell-based; conditions: Homo sapiens; read-out: R-EC50 values d-U937 cells
Procedure: U937 cells, human monocytic cell line, were differentiated to macrophage-type cells by incubation with phorbol myristate acetate (PMA; 100 ng/ml) for 48 to 72 hours. Where appropriate, cells were pre-incubated with final concentrations of compound for 2 hrs. Cells were then stimulated with 0.1 μg/mL of LPS (from E. coli: O111:B4, Sigma) for 4 hrs, and the supernatant collected for determination of TNFα concentration by sandwich ELISA (Duo-set, R&D systems).

Structure (SMILES)	effect on ovalbumin-mediated lung function changes [1]	inhibition of neutrophil or macrophage accumulation into airways [2]	pIC50 [3]	pIC50 [4]	pIC50 [5]	MTT 4 hr [6]	MTT 24 hr [6]	pEC50 [7]
CCC(=O)O[C@]1(C(=O)SCF)[C@H](C)C[C@H]2[C@@H]3C[C@H](F)C4=CC(=O)C=C[C@]4(C)[C@@]3(F)[C@@H](O)C[C@@]21C [fluticasone propionate]	inhibited	did not inhibit	–	–	–	–	–	–
Cc1ccc(-n2nc(C(C)(C)C)cc2NC(=O)Nc2ccc(OCc3ccnc(NC(=O)[C@@H]4COCCN4)c3)c3ccccc23)cc1 [Example 11, (S)-N-(4-((4-(3-(3-tert-Butyl-1-p-tolyl-1H-pyrazol-5-yl)ureido)naphthalen-1-yloxy)methyl)pyridin-2-yl)morpholine-3-carboxamide]	–	–	> 8.00	> 8.00	> 5.30	− (− <30%)	− (− <30%)	> 8.00
CN[C@@H](C)C(=O)Nc1cc(COc2ccc(NC(=O)Nc3cc(C(C)(C)C)nn3-c3ccc(C)cc3)c3ccccc23)ccn1 [Example 9, (S)-N-(4-((4-(3-(3-tert-Butyl-1-p-tolyl-1H-pyrazol-5-yl)ureido)naphthalen-1-yloxy)methyl)pyridin-2-yl)-2-(methylamino)propanamide]	–	–	> 8.00	> 8.00	> 6.30	− (− <30%)	+ (+ >30% at 10 ug/ml)	> 8.00
COCCSCC(=O)Nc1cc(COc2ccc(NC(=O)Nc3cc(C(C)(C)C)nn3-c3ccc(C)cc3)c3ccccc23)ccn1 [Example 29, N-(4-((4-(3-(3-tert-Butyl-1-p-tolyl-1H-pyrazol-5-yl)ureido)naphthalen-1-yloxy)methyl)pyridin-2-yl)-2-(2-methoxyethylthio)acetamide]	–	–	> 8.00	> 6.30	> 6.30	− (− <30%)	− (− <30%)	> 8.00
